Results from patent publication US20090196871A1, “USE OF 4-PYRIDYLMETHYLPHTHALAZINES FOR CANCER TREATMENT” (priority 2001, published 2009).

What was measured:
[1] = system: metastatic colorectal cancer; test: Example 1: combination with oxaplatin/folinic acid/5-fluorouracil chemotherapy in patients; format: in vivo, human
Method: 15 Patients with histologically confirmed metastatic colorectal cancer seven of which had previously received adjuvant chemotherapy are treated with a combination of 1-(4-chloro-anilino)-4-(4-pyridylmethyl)phthalazine and a chemotherapy regimen. The chemotherapy regimen is 85 mg/m^2 of oxaplatin on day 1, 200 mg/m^2 of folinic acid given as a 2 hour infusion on days 1 and 2, and S-fluorouracil administered as a bolus at a dose of 400 mg/m^2 followed by 600 mg/m^2 over 22 hours on days 1 and 2. The chemotherapy regimen is given every 14 days. […] The treatment is well-tolerated. […] Stable diseases are observed in 2 patients, minor responses in 3 patients and partial responses in 8 patients.

[2] = system: metastatic renal cell carcinoma; test: Example 2: once-daily oral monotherapy in patients; format: in vivo, human; conditions: 300, 750 or 1000 mg/day once a day orally
Method: Ten patients having metastatic renal cell carcinoma, six of which had previous biologic therapy, are treated with 300, 750 or 1000 mg/day of 1-(4-chloroanilino)-4-(4-pyridyl-methyl)phthalazine administered once a day orally. Seven of the ten patients maintain stable disease for a median of 3 months.

advanced solid tumors [3] = test: Example 3: twice-daily oral dosing, safety and DCE-MRI of tumors
Method: (§1) The patients are monitored by dynamic contrast enhanced magnetic resonance imaging (DCE-MRI) of tumors to provide a measure of the bi-dimensional transfer constant (Ki) prior to treatment, on day 2 and after every 28 day cycle. In addition, tumor volume is measured by magnetic resonance imaging every 28 days, and full pharmacokinetic profiles are obtained on days 1 and 28.

clinical [4] = conditions: human, in vivo, po
[5] = system: tumor vascular permeability; test: Studies in humans (general statement); set-up: species or system human; conditions: in vivo
[6] = Example 3: pharmacokinetic study, twice-daily dosing
Method: as §1

clinical [7] = conditions: human, plasma, po
advanced solid tumors [8] = test: Example 4: once-daily oral dosing, Phase I, DCE-MRI, plasma VEGF, toxicity
[9] = combination with chemotherapy, of 15 patients
[10] = among patients on 300, 500 and 1000 mg daily doses, twice daily

Tmax (clinical [4]): 1 to 2.5 h
decrease of systemic exposure (AUC) at steady-state compared to day 1 (clinical [4]): approximately 30%
dose up to which dose proportional increase in exposure is observed (clinical [4]): up to 1000 mg/day
half-life (clinical [4]): 3 to 6 h
area under the curve (AUC) ([6]; 300 mg total daily dose): 82 ng·mL·h
area under the curve (AUC) ([6]; 500 mg total daily dose): 46 ng·mL·h
area under the curve (AUC) ([6]; 1000 mg total daily dose): 370 ng·mL·h
AUC (clinical [7]): ~114 µM·h
Compound: Clc1ccc(Nc2nnc(Cc3ccncc3)c3ccccc23)cc1
minor responses observed [1, 9]: 3 patients
partial responses observed [1, 9]: 8 patients
stable diseases observed [1, 9]: 2 patients
tolerability of the treatment ([1]; combined with oxaplatin, folinic acid, 5-fluorouracil every 14 days, 500, 1000 or 2000 mg/day single daily dose, 15 patients): well-tolerated
median duration of stable disease [2]: 3 months
patients maintaining stable disease ([2]; of ten patients): Seven
grade 1 lethargy (advanced solid tumors [3]; [10]): one
grade 2 lightheadedness (advanced solid tumors [3]; [10]): 4 patients
transient grade 3 elevations of liver transaminases (advanced solid tumors [3]; [10]): 2 patients
biological effect indicated by the study data (advanced solid tumors [3]; twice daily oral): reducing tumor perfusion/vascular permeability and slowing tumor growth
tolerability / drug-related SAEs (advanced solid tumors [3]; twice daily oral, total daily doses 300-2000 mg): well tolerated with no drug-related SAEs
effect on tumor vascular permeability in humans [5]: reduce tumor vascular permeability
tolerability in humans [5]: well tolerated
reduction in Ki (DCE-MRI) associated with non-progressive disease (advanced solid tumors [8]; colorectal cancer patients with liver metastasis): 50-60%
rise in plasma VEGF levels (advanced solid tumors [8]; responders at doses >1000 mg/day, within the first 28 days of treatment): up to 5 fold
dose-limiting toxicity (advanced solid tumors [8]; up to 2000 mg/day once daily): No dose-limiting toxicity
